Measurements as given in patent US12599672B2, “KRAS proteolysis targeting chimeras” (PAQ Therapeutics Inc., priority 2023, dated 2026).

Legend:
Type in all cases: cell-based
KRAS = biological target: T1, KRAS (Homo sapiens, UniProt P01116); test: KRASamp MSD assay; conditions: KE39 (KRAS amplified) cells, treated with test compounds for 24 hr, MSD readout of KRAS degradation
T1 construct: endogenous in cells; host or cells: KE39 (KRAS amplified) cells
Protocol: KE39 (KRAS amplified) cells were cultured in RPMI 1640 medium (Gibco, 11875093), seeded into 96 well plate and treated with test compounds for 24 hr. The cells were washed with PBS and lysed in plate for 1 hr at 4° C. with agitation in RIPA buffer (Cat No. BP-115D) supplemented with protease and phosphatase inhibitor cocktail. The lysates were loaded into MSD plate coated with KRAS capture antibody (LSBio, C175665, 1:1000) for 1 h at RT with agitation. The plate was then washed three times with TBST and incubated with KRAS detection antibody (Abcam, Ab275876. 1:2000) for 1 h at RT. After washing three times with TBST, the plate was incubated with secondary detection antibody GAR (1:500) for 1 hr at RT followed with 3×TBST washing. 2×MSD reading buffer was added into individual wells and the plate was finally read by MSD reader (MSD, SQ 120 MM). The recombinant WT KRAS protein was used for standard curve generation and protein quantification. The degradation activity was calculated using the following formula: […]
DC50 was calculated by fitting the curve using GraphPad Prism v8.0.2 (analysis 263): […]

KRAS G12D = biological target: T2, KRAS G12D (Homo sapiens, UniProt P01116, G12D); test: KRAS G12D HiBit assay; conditions: AsPc-1-KRAS (G12D)-HiBit-KI cell, compound treatment for 24 hours; for DC50: absolute DC50
T2 construct: AsPc-1-KRAS (G12D)-HiBit-KI cell (Pharmaron); host or cells: AsPc-1-KRAS (G12D)-HiBit-KI cells (HiBiT knock-in at the endogenous KRAS locus)
In short: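 Cells were treated for 24 h with compounds in a 3-fold, 10-point dilution series from a 0.3 mM DMSO stock, then equilibrated 15 min at room temperature. KRAS G12D HiBiT levels were read by luminescence after lytic Nano-Glo HiBiT reagent with LgBiT; inhibition calculated relative to 0.1% DMSO high control.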

KRAS G12V = biological target: T3, KRAS G12V (Homo sapiens, UniProt P01116, G12V); test: KRAS G12V HiBit assay; conditions: SW620-KRAS (G12V)-HiBit-KI cells, compound treatment for 24 hours
T3 construct: SW620-KRAS (G12V)-HiBit-KI cell (Pharmaron); host or cells: SW620-KRAS (G12V)-HiBit-KI cells (HiBiT knock-in at the endogenous KRAS locus)
In short: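 HiBiT-tagged KRAS G12V cells treated 24 h with compound in a 3-fold, 10-point series (0.3 mM DMSO stock); lytic HiBiT reagent with LgBiT added after 15 min room-temperature equilibration. Degradation calculated against 0.1% DMSO high control.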

T3 sequence (P01116 1-188 isoform P01116-2 G12V): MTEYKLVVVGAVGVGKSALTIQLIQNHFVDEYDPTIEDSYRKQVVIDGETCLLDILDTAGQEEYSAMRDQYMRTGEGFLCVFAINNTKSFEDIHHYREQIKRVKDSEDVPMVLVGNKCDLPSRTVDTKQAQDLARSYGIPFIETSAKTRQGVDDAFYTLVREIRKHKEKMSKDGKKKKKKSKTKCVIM
T1 sequence (P01116 1-188 isoform P01116-2): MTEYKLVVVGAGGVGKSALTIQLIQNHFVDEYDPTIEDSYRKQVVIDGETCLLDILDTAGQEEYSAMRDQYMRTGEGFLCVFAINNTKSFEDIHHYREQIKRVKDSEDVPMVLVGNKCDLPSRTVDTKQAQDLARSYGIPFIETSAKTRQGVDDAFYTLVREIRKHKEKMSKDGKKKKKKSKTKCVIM
T2 sequence (P01116 1-188 isoform P01116-2 G12D): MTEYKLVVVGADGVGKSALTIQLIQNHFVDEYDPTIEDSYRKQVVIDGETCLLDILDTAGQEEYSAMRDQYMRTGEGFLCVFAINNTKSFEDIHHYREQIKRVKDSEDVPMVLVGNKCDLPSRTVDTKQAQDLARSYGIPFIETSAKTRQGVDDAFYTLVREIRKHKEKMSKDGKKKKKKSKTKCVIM

| SMILES | DC50 (KRAS) [nM] | DC50 (KRAS G12D; class symbols) [nM] | Dmax (KRAS G12D; class symbols) [%] | DC50 (KRAS G12V; class symbols) [nM] | DC50 (KRAS G12D; numeric bounds given in place of class symbols) [nM] | DC50 (KRAS G12V; numeric bounds) [nM] |
| --- | --- | --- | --- | --- | --- | --- |
| C#Cc1c(F)ccc2cc(O)cc(-c3ncc4c(N5CCCC(C#N)CC5)nc(OC[C@@]56CCCN5[C@H](COC(=O)N5CCC(CN7CCC(c8ccc9c(c8)n(C)c(=O)n9C8CCC(=O)NC8=O)CC7)CC5)CC6)nc4c3F)c12 (stereo partly drawn) [Compound 110, ((3S,7aS)-7a-(((4-(4-Cyanoazepan-1-yl)-7-(8-ethynyl-7-fluoro-3-hydroxynaphthalen-1-yl)-8-fluoropyrido[4,3-d]pyrimidin-2-yl)oxy)methyl)hexahydro-1H-pyrrolizin-3-yl)methyl 4-((4-(1-(2,6-dioxopiperidin-3-yl)-3-methyl-2-oxo-2,3-dihydro-1H-benzo[d]imidazol-5-yl)piperidin-1-yl)methyl) piperidine-1-carboxylate] | 1 to 10 | < 100 | > 50 | < 10 |  |  |
| CCc1c(F)ccc2cc(O)cc(-c3ncc4c(N5CCC[C@@](C)(O)C5)nc(OCC56CCCN5[C@@H](COC(=O)N5CCC(CN7CCC(c8ccc9c(c8)n(C)c(=O)n9C8CCC(=O)NC8=O)CC7)CC5)CC6)nc4c3F)c12 (stereo partly drawn) [Compound 121, (cis-7a-(((7-(8-Ethyl-7-fluoro-3-hydroxynaphthalen-1-yl)-8-fluoro-4-((R)-3-hydroxy-3-methylpiperidin-1-yl)pyrido[4,3-d]pyrimidin-2-yl)oxy)methyl)hexahydro-1H-pyrrolizin-3-yl)methyl 4-((4-(1-(2,6-dioxopiperidin-3-yl)-3-methyl-2-oxo-2,3-dihydro-1H-benzo[d]imidazol-5-yl)piperidin-1-yl)methyl) piperidine-1-carboxylate] | 1 to 10 | < 100 |  | < 10 |  |  |
| C#Cc1c(F)ccc2cc(O)cc(-c3ncc4c(N5CCCCCC5)nc(OC[C@@]56CCCN5[C@H](COC(=O)N5CCC(CN7CCC(c8ccc9c(c8)n(C)c(=O)n9C8CCC(=O)NC8=O)CC7)CC5)CC6)nc4c3F)c12 (stereo partly drawn) [Compound 123, ((3S,7aS)-7a-(((4-(Azepan-1-yl)-7-(8-ethynyl-7-fluoro-3-hydroxynaphthalen-1-yl)-8-fluoropyrido[4,3-d]pyrimidin-2-yl)oxy)methyl)hexahydro-1H-pyrrolizin-3-yl)methyl4-((4-(1-(2,6-dioxopiperidin-3-yl)-3-methyl-2-oxo-2,3-dihydro-1H-benzo[d]imidazol-5-yl)piperidin-1-yl)methyl) piperidine-1-carboxylate] | < 1 | < 100 | > 50 | < 10 |  |  |
| C#Cc1c(F)ccc2cc(O)cc(-c3ncc4c(N5CCCC(F)(F)C5)nc(OC[C@@]56CCCN5[C@H](COC(=O)N5CCC(CN7CCC(c8ccc9c(c8)n(C)c(=O)n9C8CCC(=O)NC8=O)CC7)CC5)CC6)nc4c3F)c12 (stereo partly drawn) [Compound 124, ((35,7aS)-7a-(((4-(3,3-Difluoropiperidin-1-yl)-7-(8-ethynyl-7-fluoro-3-hydroxynaphthalen-1-yl)-8-fluoropyrido[4,3-d]pyrimidin-2-yl)oxy)methyl)hexahydro-1H-pyrrolizin-3-yl)methyl4-((4-(1-(2,6-dioxopiperidin-3-yl)-3-methyl-2-oxo-2,3-dihydro-1H-benzo[d]imidazol-5-yl)piperidin-1-yl)methyl) piperidine-1-carboxylate] | < 1 | < 100 | > 50 | < 10 |  |  |
| C#Cc1c(F)ccc2cc(O)cc(-c3ncc4c(N5CCOCC5)nc(OC[C@@]56CCCN5[C@H](COC(=O)N5CCC(CN7CCC(c8ccc9c(c8)n(C)c(=O)n9C8CCC(=O)NC8=O)CC7)CC5)CC6)nc4c3F)c12 (stereo partly drawn) [Compound 125, ((3S,7aS)-7A-(((7-(8-Ethynyl-7-fluoro-3-hydroxynaphthalen-1-yl)-8-fluoro-4-morpholinopyrido[4,3-d]pyrimidin-2-yl)oxy)methyl)hexahydro-1H-pyrrolizin-3-yl)methyl 4-((4-(1-(2,6-dioxopiperidin-3-yl)-3-methyl-2-oxo-2,3-dihydro-1H-benzo[d]imidazol-5-yl)piperidin-1-yl)methyl) piperidine-1-carboxylate] | < 1 | < 100 | > 50 | < 10 |  |  |
| C#Cc1c(F)ccc2cc(O)cc(-c3ncc4c(N5CCC[C@@](C)(O)C5)nc(OC[C@]56CCCN5[C@@H](COC(=O)N5CCC(CN7CCC(c8ccc9c(c8)n(C)c(=O)n9C8CCC(=O)NC8=O)CC7)CC5)CC6)nc4c3F)c12 (stereo partly drawn) [Compound 126, ((3R,7aR)-7a-(((7-(8-Ethynyl-7-fluoro-3-hydroxynaphthalen-1-yl)-8-fluoro-4-((R)-3-hydroxy-3-methylpiperidin-1-yl)pyrido[4,3-d]pyrimidin-2-yl)oxy)methyl)hexahydro-1H-pyrrolizin-3-yl)methyl 4-((4-(1-(2,6-dioxopiperidin-3-yl)-3-methyl-2-oxo-2,3-dihydro-1H-benzo[d]imidazol-5-yl)piperidin-1-yl)methyl) piperidine-1-carboxylate] | < 1 |  |  | < 10 | > 38.3 |  |
| C#Cc1c(F)ccc2cc(O)cc(-c3ncc4c(N5CCC[C@@](C)(O)C5)nc(OC[C@@]56CCCN5[C@H](COC(=O)N5CCC(COC7CN(c8ccc9c(c8)n(C)c(=O)n9C8CCC(=O)NC8=O)C7)CC5)CC6)nc4c3F)c12 (some centres unmarked) [Compound 132] | 1 to 10 | < 100 |  | < 10 |  |  |

The remaining lines, values ahead:

| DC50 (KRAS) [nM] | DC50 (KRAS G12D; class symbols) [nM] | Dmax (KRAS G12D; class symbols) [%] | DC50 (KRAS G12V; class symbols) [nM] | DC50 (KRAS G12D; numeric bounds given in place of class symbols) [nM] | DC50 (KRAS G12V; numeric bounds) [nM] | SMILES |
| --- | --- | --- | --- | --- | --- | --- |
| < 1 | < 100 |  | < 10 |  |  | CCc1c(F)ccc2cc(O)cc(-c3ncc4c(N5CCOCC(C)(O)C5)nc(OC[C@@]56CCCN5[C@H](COC(=O)N5CCC(CN7CCC(c8ccc9c(c8)n(C)c(=O)n9C8CCC(=O)NC8=O)CC7)CC5)CC6)nc4c3F)c12 (stereo partly drawn) [Compound 118, ((3S,7aS)-7a-(((7-(8-Ethyl-7-fluoro-3-hydroxynaphthalen-1-yl)-8-fluoro-4-(6-hydroxy-6-methyl-1,4-oxazepan-4-yl)pyrido[4,3-d]pyrimidin-2-yl)oxy)methyl)hexahydro-1H-pyrrolizin-3-yl)methyl4-((4-(1-(2,6-dioxopiperidin-3-yl)-3-methyl-2-oxo-2,3-dihydro-1H-benzo[d]imidazol-5-yl)piperidin-1-yl)methyl) piperidine-1-carboxylate] |
| < 1 | < 100 |  | < 10 |  |  | CCc1c(F)ccc2cc(O)cc(-c3ncc4c(N5CCC[C@@](C)(O)C5)nc(OC[C@]56CCCN5[C@@H](COC(=O)N5CCC(CN7CCC(c8ccc9c(c8)n(C)c(=O)n9C8CCC(=O)NC8=O)CC7)CC5)CC6)nc4c3F)c12 (stereo partly drawn) [Compound 120, ((3R,7aR)-7a-(((7-(8-Ethyl-7-fluoro-3-hydroxynaphthalen-1-yl)-8-fluoro-4-((R)-3-hydroxyl-3-methylpiperidin-1-yl)pyrido[4,3-d]pyrimidin-2-yl)oxy)methyl)hexahydro-1H-pyrrolizin-3-yl)methyl4-((4-(1-(2,6-dioxopiperidin-3-yl)-3-methyl-2-oxo-2,3-dihydro-1H-benzo[d]imidazol-5-yl)piperidin-1-yl)methyl) piperidine-1-carboxylate] |
| < 1 | < 100 | > 50 | < 10 |  |  | C#Cc1c(F)ccc2cc(O)cc(-c3ncc4c(N5CCCCC5)nc(OC[C@@]56CCCN5[C@H](COC(=O)N5CCC(CN7CCC(c8ccc9c(c8)n(C)c(=O)n9C8CCC(=O)NC8=O)CC7)CC5)CC6)nc4c3F)c12 (stereo partly drawn) [Compound 122, ((3S,7aS)-7a-(((7-(8-Ethynyl-7-fluoro-3-hydroxynaphthalen-1-yl)-8-fluoro-4-(piperidin-1-yl)pyrido[4,3-d]pyrimidin-2-yl)oxy)methyl)hexahydro-1H-pyrrolizin-3-yl)methyl4-((4-(1-(2,6-dioxopiperidin-3-yl)-3-methyl-2-oxo-2,3-dihydro-1H-benzo[d]imidazol-5-yl)piperidin-1-yl)methyl) piperidine-1-carboxylate] |
| < 1 | < 100 |  | < 10 |  |  | C#Cc1c(F)ccc2cc(O)cc(-c3ncc4c(N5CCC[C@@](C)(O)C5)nc(OC[C@]56CCCN5[C@H](COC(=O)N5CCC(CN7CCC(c8ccc9c(c8)n(C)c(=O)n9C8CCC(=O)NC8=O)CC7)CC5)CC6)nc4c3F)c12 (some centres unmarked) [Compound 134] |
| 1 to 10 | 100 to 300 |  |  |  | > 75.7 | C#Cc1c(F)ccc2cccc(-c3ncc4c(N5CCC[C@@](C)(O)C5)nc(OC[C@@]56CCCN5[C@H](COC(=O)N5CCC(CN7CCC(c8cccc9c8n(C)c(=O)n9C8CCC(=O)NC8=O)CC7)CC5)CC6)nc4c3F)c12 (some centres unmarked) [Compound 137] |
